PubChem BioAssay AID330 (DTP/NCI, 2004)
Several values for one entry are separate records, joined by “and”; a condition that tells them apart may be missing. Identical values can stand only once. Toxic doses and inconclusive results are not listed. Rule for the calls: active = survival T/C of 150% or more; inactive = T/C below 125% in these data.

System: P388 leukemia ip, CD2F1 mice, survival T/C
Assay: NCI In Vivo Anticancer Drug Screen. Data for tumor model P388 Leukemia (intraperitoneal) in CD2F1 (CDF1) mice
Details: endpoint: median survival time, higher = longer survival
In short: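 Mice carrying the transplanted tumor received test compound or vehicle. Survival was recorded in each group, and the value is the treated-group measurement divided by that of the vehicle-treated control group.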

[1] = dose: 50.0 mg/kg/injection, schedule: Q01DX005 (ip), vehicle: Klucel (hydroxypropylcellulose) (HPC)
[2] = dose: 50.0 mg/kg/injection, schedule: Q01DX009 (ip), vehicle: Klucel (hydroxypropylcellulose) (HPC)
[3] = dose: 100.0 mg/kg/injection, schedule: Q01DX009 (ip), vehicle: Klucel (hydroxypropylcellulose) (HPC)
[4] = dose: 200.0 mg/kg/injection, schedule: Q01DX009 (ip), vehicle: Klucel (hydroxypropylcellulose) (HPC)
[5] = dose: 100.0 mg/kg/injection, schedule: Q01DX001 (ip), vehicle: saline with Tween-80
[6] = dose: 200.0 mg/kg/injection, schedule: Q01DX001 (ip), vehicle: saline with Tween-80
[7] = dose: 60.0 mg/kg/injection, schedule: Q01DX005 (ip), vehicle: Klucel (hydroxypropylcellulose) (HPC)
[8] = dose: 120.0 mg/kg/injection, schedule: Q01DX005 (ip), vehicle: Klucel (hydroxypropylcellulose) (HPC)
[9] = dose: 240.0 mg/kg/injection, schedule: Q01DX005 (ip), vehicle: Klucel (hydroxypropylcellulose) (HPC)
[10] = dose: 50.0 mg/kg/injection, schedule: Q01DX009 (ip), vehicle: saline with Tween-80
[11] = dose: 100.0 mg/kg/injection, schedule: Q01DX009 (ip), vehicle: saline with Tween-80
[12] = dose: 200.0 mg/kg/injection, schedule: Q01DX009 (ip), vehicle: saline with Tween-80
[13] = dose: 60.0 mg/kg/injection, schedule: Q01DX005 (ip), vehicle: saline with Tween-80
[14] = dose: 120.0 mg/kg/injection, schedule: Q01DX005 (ip), vehicle: saline with Tween-80
[15] = dose: 100.0 mg/kg/injection, schedule: Q01DX005 (ip), vehicle: Klucel (hydroxypropylcellulose) (HPC)
[16] = dose: 200.0 mg/kg/injection, schedule: Q01DX005 (ip), vehicle: Klucel (hydroxypropylcellulose) (HPC)
[17] = dose: 400.0 mg/kg/injection, schedule: Q01DX009 (ip), vehicle: Klucel (hydroxypropylcellulose) (HPC)
[18] = dose: 12.5 mg/kg/injection, schedule: Q01DX009 (ip), vehicle: water
[19] = dose: 25.0 mg/kg/injection, schedule: Q01DX009 (ip), vehicle: water
[20] = dose: 50.0 mg/kg/injection, schedule: Q01DX009 (ip), vehicle: water
[21] = dose: 100.0 mg/kg/injection, schedule: Q01DX009 (ip), vehicle: water
[22] = dose: 100.0 mg/kg/injection, schedule: Q04DX003 (ip), vehicle: saline with Tween-80
[23] = dose: 200.0 mg/kg/injection, schedule: Q04DX003 (ip), vehicle: saline with Tween-80

Measured: T/C

C1CC[N-]CC1.C1CC[N-]CC1.C1CC[N-]CC1.[Cr+6].[N-]=C=O.[N-]=C=O.[N-]=C=O
inactive: dose: 100.0 mg/kg/injection, schedule: Q04DX002 (ip), vehicle: distilled water + alcohol 99 % of control | dose: 200.0 mg/kg/injection, schedule: Q04DX002 (ip), vehicle: distilled water + alcohol 96 % of control | dose: 400.0 mg/kg/injection, schedule: Q04DX002 (ip), vehicle: distilled water + alcohol 89 % of control

Cc1c2ccncc2c(O)c2c3ccccc3n(C)c12
inactive: dose: 12.5 mg/kg/injection, schedule: Q01DX005 (ip), vehicle: Klucel (hydroxypropylcellulose) (HPC) 108 % of control | dose: 25.0 mg/kg/injection, schedule: Q01DX005 (ip), vehicle: Klucel (hydroxypropylcellulose) (HPC) 110 % of control | [1] 108 % of control

COc1ccc2c(c1)sc1nc(Oc3ccccc3)nc(=O)n12
inactive: [2] 105 % of control | [3] 108 % of control | [4] 100 % of control

CC(=O)N/C(=C\c1ccc(Cl)cc1)C(=O)c1ccc(C)cc1
inactive: dose: 50.0 mg/kg/injection, schedule: Q01DX001 (ip), vehicle: saline with Tween-80 99 % of control | [5] 97 % of control | [6] 97 % of control

O=C1CCC(=O)N1CN(CS(=O)(=O)c1ccc(Cl)cc1)c1ccc(Cl)cc1
inactive: [7] 90 % of control | [8] 88 % of control | [9] 90 % of control

CCOc1ccc2[nH]c(=S)sc2c1
inactive: [2] 100 % of control | [3] 100 % of control | [4] 101 % of control

[O-]c1n[n+](Cc2ccc(Br)cc2)no1
inactive: dose: 50.0 mg/kg/injection, schedule: Q04DX003 (ip), vehicle: Klucel (hydroxypropylcellulose) (HPC) 96 % of control | dose: 100.0 mg/kg/injection, schedule: Q04DX003 (ip), vehicle: Klucel (hydroxypropylcellulose) (HPC) 100 % of control | dose: 200.0 mg/kg/injection, schedule: Q04DX003 (ip), vehicle: Klucel (hydroxypropylcellulose) (HPC) 110 % of control

CN(/N=C/c1ccc(N(C)C)cc1)C(=O)c1ccccc1N
inactive: [10] 100 % of control | [11] 93 % of control | [12] 94 % of control

Cc1cc(Br)ccc1N=Nc1c(C)noc1C
inactive: dose: 100.0 mg/kg/injection, schedule: Q04DX002 (ip), vehicle: saline 104 % of control | dose: 200.0 mg/kg/injection, schedule: Q04DX002 (ip), vehicle: saline 104 % of control | dose: 400.0 mg/kg/injection, schedule: Q04DX002 (ip), vehicle: saline 101 % of control

CCC(=O)NC(CC(=O)O)c1cccs1 (stereo not drawn)
inactive: dose: 12.5 mg/kg/injection, schedule: Q01DX009 (ip), vehicle: saline 102 % of control | dose: 25.0 mg/kg/injection, schedule: Q01DX009 (ip), vehicle: saline 104 % of control | dose: 50.0 mg/kg/injection, schedule: Q01DX009 (ip), vehicle: saline 107 % of control | dose: 100.0 mg/kg/injection, schedule: Q01DX009 (ip), vehicle: saline 90 % of control | dose: 200.0 mg/kg/injection, schedule: Q01DX009 (ip), vehicle: saline 93 % of control

O=C(Nc1ccc(Cl)cc1)Nc1nnc2nc(C(C(=O)c3ccc(O)cc3O)c3nc4nnc(NC(=O)Nc5ccc(Cl)cc5)n4[nH]c3=O)c(=O)[nH]n12
inactive: [13] 103 % of control | [14] 95 % of control

COc1ccc2c(c1)c(COC(C)=O)c(C)c[n+]2[O-]
inactive: [1] 100 % of control | [15] 104 % of control | [16] 88 % of control

O=C(OC1COC(Br)C(OC(=O)c2ccccc2)C1OC(=O)c1ccccc1)c1ccccc1 (stereo not drawn)
inactive: [3] 100 % of control | [4] 100 % of control | [17] 90 % of control

[C-]#[N+]N=P(c1ccccc1)(c1ccccc1)c1ccccc1
inactive: [7] 107 % of control | [8] 114 % of control | [9] 122 % of control

CCSc1cccc2nnc(C(C)(C)C)n12
inactive: [5] 98 % of control | [6] 99 % of control | dose: 400.0 mg/kg/injection, schedule: Q01DX001 (ip), vehicle: saline with Tween-80 97 % of control

Nc1ncnc2nc(-c3ccc(C[P+](c4ccccc4)(c4ccccc4)c4ccccc4)cc3)[nH]c12
inactive: [13] 95 % of control | [14] 95 % of control | dose: 240.0 mg/kg/injection, schedule: Q01DX005 (ip), vehicle: saline with Tween-80 95 % of control

CCOC(=O)c1nc(C)nc(N)c1C
inactive: [18] 102 % of control | [19] 91 % of control | [20] 93 % of control | [21] 100 % of control | dose: 200.0 mg/kg/injection, schedule: Q01DX009 (ip), vehicle: water 100 % of control

CCCCC(CC)CO.[Ti] (stereo not drawn)
inactive: [10] 90 % of control | dose: 50.0 mg/kg/injection, schedule: Q04DX003 (ip), vehicle: saline with Tween-80 100 % of control | [11] 109 % of control | [22] 100 % of control | [12] 100 % of control | [23] 100 % of control

NS(=O)(=O)c1c[nH]c(=O)[nH]c1=O
inactive: [2] 105 % of control | [3] 93 % of control | [4] 97 % of control | [17] 91 % of control

CN=C(N)NN=C(c1ccccc1)c1ccccc1
inactive: dose: 25.0 mg/kg/injection, schedule: Q04DX002 (ip), vehicle: saline with Tween-80 104 % of control | dose: 50.0 mg/kg/injection, schedule: Q04DX002 (ip), vehicle: saline with Tween-80 109 % of control | dose: 100.0 mg/kg/injection, schedule: Q04DX002 (ip), vehicle: saline with Tween-80 110 % of control

CC1CC[P+](c2ccccc2)(c2ccccc2)c2c1ccc1ccccc21 (stereo not drawn)
inactive: dose: 6.25 mg/kg/injection, schedule: Q04DX002 (ip), vehicle: saline 118 % of control | dose: 12.5 mg/kg/injection, schedule: Q04DX002 (ip), vehicle: saline 108 % of control

NC(=O)NC(C/[N+]([O-])=N/O)C(=O)O (stereo not drawn)
inactive: [18] 100 % of control | [19] 96 % of control | [20] 98 % of control | [21] 98 % of control

Cc1ccc([N+](=O)[O-])cc1NC(=O)COc1cc(Cl)c(Cl)cc1Cl
inactive: [22] 90 % of control | [23] 90 % of control | dose: 400.0 mg/kg/injection, schedule: Q04DX003 (ip), vehicle: saline with Tween-80 95 % of control

CC1(C)S(=O)(=O)OCCOS1(=O)=O
inactive: dose: 3.75 mg/kg/injection, schedule: Q01DX005 (ip), vehicle: Klucel (hydroxypropylcellulose) (HPC) 107 % of control | dose: 7.5 mg/kg/injection, schedule: Q01DX005 (ip), vehicle: Klucel (hydroxypropylcellulose) (HPC) 107 % of control and 111 % of control and 115 % of control | dose: 15.0 mg/kg/injection, schedule: Q01DX005 (ip), vehicle: Klucel (hydroxypropylcellulose) (HPC) 119 % of control

COc1cc2ccc3c[n+](C)ccc3c2cc1OC
inactive: dose: 6.25 mg/kg/injection, schedule: Q01DX009 (ip), vehicle: water 101 % of control and 103 % of control | dose: 12.5 mg/kg/injection, schedule: Q01DX009 (ip), vehicle: other 107 % of control | [18] 114 % of control | dose: 25.0 mg/kg/injection, schedule: Q01DX009 (ip), vehicle: other 119 % of control | [19] 116 % of control and 122 % of control | [21] 108 % of control

COC(=O)CCSC(=O)Nc1cccc(C(F)(F)F)c1
inactive: [1] 97 % of control | [15] 98 % of control | [16] 104 % of control

CS(=O)(=O)OCCCCCCCCCCCC1C=CCC1 (stereo not drawn)
inactive: dose: 100.0 mg/kg/injection, schedule: Q04DX003 (ip), vehicle: saline 94 % of control | dose: 200.0 mg/kg/injection, schedule: Q04DX003 (ip), vehicle: saline 93 % of control | dose: 400.0 mg/kg/injection, schedule: Q04DX003 (ip), vehicle: saline 94 % of control

O=C1c2ccccc2C(=O)c2c(I)cccc21
inactive: dose: 50.0 mg/kg/injection, schedule: Q01DX005 (ip), vehicle: saline with Tween-80 97 % of control | dose: 100.0 mg/kg/injection, schedule: Q01DX005 (ip), vehicle: saline with Tween-80 97 % of control
